Measured values reported in patent publication US10226453B2, “3-(1H-indol-2-yl)-1H-pyrazolo[4,3-B]pyridines and therapeutic uses thereof” (Samumed, LLC, priority 2015, dated 2019).

Experiments:
SW480 colon cancer cells = experiment: Cell viability assay (CellTiter-Blue), SW480 colon cancer cells; type: cell-based; conditions: Homo sapiens, 96 h, four days; for EC50: CellTiter-Blue; for inhibition at 10 µM: given where EC50 >10 μM, read-out: percent inhibition at 10 μM
Outline: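 SW480 cells (~2×10^3/well) exposed four days at 37 °C to 8-point 1:3 dilutions, 10 μM down to 0.0045 μM. Viability from resazurin reduction (CellTiter-Blue, ~3 h, Ex 560/Em 590); EC50 by non-linear regression, or percent inhibition at 10 μM where EC50 exceeds 10 μM.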

[1] = tested on: primary human mesenchymal stem cells (hMSCs); experiment: Induction of chondrogenesis in primary human mesenchymal stem cells (hMSCs), nodule count; type: cell-based; conditions: 144 h, 6 days; for EC50: concentration required to induce 50% levels of chondrogenesis of TGF-β3 control, read-out: Conc (nM) of 50% TGF-β3 activity; for Emax: relative to TGF-β3 (10 ng/mL) positive control, read-out: Max. Activity as % TGF-β3 activity
Method: Representative compounds were screened using primary human mesenchymal stem cells (hMSCs) to determine their ability to induce chondrogenesis (process by which cartilage is developed).
Primary human mesenchymal stem cells (hMSCs) were purchased from Lonza (Walkersville, Md.) and expanded in Mesenchymal Stem Cell Growth Media (Lonza). Cells between passage 3 and 6 were used for the experiments.
Each compound was dissolved in DMSO as a 10 mM stock and used to prepare compound source plates. Serial dilution (1:3, 6-point dose-response curves from 2700 nM to 10 nM) and compound transfer was performed using the ECHO 550 (Labcyte, Sunnyvale, Calif.) into 96-well clear bottom assay plates (Greiner Bio-One) with appropriate DMSO backfill for a final DMSO concentration of 0.03%. hMSCs were plated at 20,000 cells/well in 250 μL/well Incomplete Chondrogenic Induction Medium (Lonza; DMEM, dexamethasone, ascorbate, insulin-transferrin-selenium [ITS supplement], gentamycin-amphotericin [GA-1000], sodium pyruvate, proline and L-glutamine). TGF-β3 (10 ng/mL) was used as a positive control for differentiation while negative control wells were treated with 75 nL DMSO for normalization and calculating EC50 values. Cells were incubated at 37° C. and 5% CO2 for 6 days. To image chondrogenic nodules, the cells were fixed using 4% formaldehyde (Electron Microscopy Sciences), and stained with 2 μg/mL Rhodamine B (Sigma-Aldrich) and 20 μM Nile Red (Sigma-Aldrich) [Johnson K., et. al, A Stem Cell-Based Approach to Cartilage Repair, Science, (2012). 336(6082), 717-721]. The nodules imaged (4 images per well at 4× magnification) by excitation at 531 nm and emission at 625 nm and quantified using the CellInsight CX5 (Thermo Scientific). Number of nodules in each well was normalized to the average of 3 DMSO treated wells on the same plate using Excel (Microsoft Inc.). The normalized averages (fold change over DMSO) of 3 replicate wells for each compound concentration were calculated. Due to solubility limitations of some of the compounds, curve fitting was incomplete leading to inaccurate EC50 determinations.
Using TGF-β3 as a positive control, the concentration of representative compounds required to induce 50% levels of chondrogenesis is reported. In addition, the maximum activity of each compound and the respective dose that each compound reached maximum chondrogenesis activity is reported.

With `CC(C)(C)C(=O)Nc1cncc(-c2ccc3[nH]nc(-c4cc5c(-c6cccc(F)c6)cccc5[nH]4)c3n2)c1` [Compound 8, N-(5-(3-(4-(3-Fluorophenyl)-1H-indol-2-yl)-1H-pyrazolo[4,3-b]pyridin-5-yl)pyridin-3-yl)pivalamide] the EC50 (SW480 colon cancer cells) was greater than 10000 nM and the inhibition at 10 µM (SW480 colon cancer cells) was 20.9%.

`CN(C)Cc1cncc(-c2ccc3[nH]nc(-c4cc5c(-c6ccc(F)cc6)cccc5[nH]4)c3n2)c1` [Compound 41, 1-(5-(3-(4-(4-Fluorophenyl)-1H-indol-2-yl)-1H-pyrazolo[4,3-b]pyridin-5-yl)pyridin-3-yl)-N,N-dimethylmethanamine] was tested, and the EC50 (SW480 colon cancer cells) was 1680 nM, the EC50 [1] was 10 nM and the Emax [1] was 93%.

`Fc1ccc(-c2cccc3[nH]c(-c4n[nH]c5ccc(-c6cncnc6)nc45)cc23)cc1` [Compound 55, 3-(4-(4-Fluorophenyl)-1H-indol-2-yl)-5-(pyrimidin-5-yl)-1H-pyrazolo[4,3-b] pyridine] was tested, and the EC50 (SW480 colon cancer cells) was greater than 10000 nM and the inhibition at 10 µM (SW480 colon cancer cells) was 18.5%.

For `Fc1ccccc1-c1cccc2[nH]c(-c3n[nH]c4ccc(-c5cncc(CN6CCCCC6)c5)nc34)cc12` [Compound 71, 3-(4-(2-Fluorophenyl)-1H-indol-2-yl)-5-(5-(piperidin-1-ylmethyl)pyridin-3-yl)-1H-pyrazolo[4,3-b]pyridine], the EC50 (SW480 colon cancer cells) was 1060 nM, the EC50 [1] was 100 nM and the Emax [1] was 96%.

For `Fc1ccccc1-c1cccc2[nH]c(-c3n[nH]c4ccc(-c5cncc(CNCc6ccccc6)c5)nc34)cc12` [Compound 80, N-Benzyl-1-(5-(3-(4-(2-fluorophenyl)-1H-indol-2-yl)-1H-pyrazolo[4,3-b]pyridin-5-yl)pyridin-3-yl)methanamine], the EC50 (SW480 colon cancer cells) was greater than 10000 nM and the inhibition at 10 µM (SW480 colon cancer cells) was 18.5%.

For `c1cncc(-c2ccc3[nH]nc(-c4cc5c(-c6cccnc6)cccc5[nH]4)c3n2)c1` [Compound 88, 5-(Pyridin-3-yl)-3-(4-(pyridin-3-yl)-1H-indol-2-yl)-1H-pyrazolo[4,3-b] pyridine], the EC50 (SW480 colon cancer cells) was 775 nM, the EC50 [1] was 900 nM and the Emax [1] was 386%.

In the case of `CN(C)Cc1cncc(-c2ccc3[nH]nc(-c4cc5c(-c6cccnc6)cccc5[nH]4)c3n2)c1` [Compound 97, N,N-Dimethyl-1-(5-(3-(4-(pyridin-3-yl)-1H-indol-2-yl)-1H-pyrazolo[4,3-b]pyridin-5-yl)pyridin-3-yl)methanamine], the EC50 (SW480 colon cancer cells) is reported as 801 nM and the Emax [1] is reported as 36%.

`Nc1cncc(-c2ccc3[nH]nc(-c4cc5c(-c6ccncc6)cccc5[nH]4)c3n2)c1` [Compound 115, 5-(3-(4-(Pyridin-4-yl)-1H-indol-2-yl)-1H-pyrazolo[4,3-b]pyridin-5-yl) pyridin-3-amine] showed an EC50 (SW480 colon cancer cells) of 218 nM, an EC50 [1] of 900 nM and an Emax [1] of 165%.

Work on `Cc1ccncc1-c1ccc2[nH]nc(-c3cc4c(-c5ccncc5)cccc4[nH]3)c2n1` [Compound 117, 5-(4-Methylpyridin-3-yl)-3-(4-(pyridin-4-yl)-1H-indol-2-yl)-1H-pyrazolo [4,3-b]pyridine] yielded an EC50 (SW480 colon cancer cells) of 696 nM, an EC50 [1] of 900 nM and an Emax [1] of 703%.

Work on `c1cc(-c2ccncc2)c2cc(-c3n[nH]c4ccc(-c5cncc(CN6CCCCC6)c5)nc34)[nH]c2c1` [Compound 127, 5-(5-(Piperidin-1-ylmethyl)pyridin-3-yl)-3-(4-(pyridin-4-yl)-1H-indol-2-yl)-1H-pyrazolo[4,3-b]pyridine] yielded an EC50 (SW480 colon cancer cells) of 1920 nM, an EC50 [1] of 2700 nM and an Emax [1] of 151%.

`c1cc(-c2ccncc2)c2cc(-c3n[nH]c4ccc(-c5cncc(CNCC6CCCC6)c5)nc34)[nH]c2c1` [Compound 137, 1-Cyclopentyl-N-((5-(3-(4-(pyridin-4-yl)-1H-indol-2-yl)-1H-pyrazolo[4,3-b]pyridin-5-yl)pyridin-3-yl)methyl)methanamine] showed an EC50 (SW480 colon cancer cells) greater than 10000 nM and an inhibition at 10 µM (SW480 colon cancer cells) of 14.7%.

`c1ccc(-c2ccc3[nH]nc(-c4cc5c(-c6ccncc6)cccc5[nH]4)c3n2)nc1` [Compound 140, 5-(Pyridin-2-yl)-3-(4-(pyridin-4-yl)-1H-indol-2-yl)-1H-pyrazolo[4,3-b] pyridine] gave an EC50 (SW480 colon cancer cells) greater than 10000 nM and an inhibition at 10 µM (SW480 colon cancer cells) of 33.4%.

For `FC1(F)CCN(Cc2cncc(-c3ccc4[nH]nc(-c5cc6c(-c7ccccn7)cccc6[nH]5)c4n3)c2)C1` [Compound 166, 5-(5-((3,3-Difluoropyrrolidin-1-yl)methyl)pyridin-3-yl)-3-(4-(pyridin-2-yl)-1H-indol-2-yl)-1H-pyrazolo[4,3-b]pyridine], the EC50 (SW480 colon cancer cells) was 1180 nM, the EC50 [1] was 10 nM and the Emax [1] was 82%.

`c1ccc(-c2cccc3[nH]c(-c4n[nH]c5ccc(-c6cncnc6)nc45)cc23)nc1` [Compound 167, 3-(4-(Pyridin-2-yl)-1H-indol-2-yl)-5-(pyrimidin-5-yl)-1H-pyrazolo[4,3-b] pyridine] showed an EC50 (SW480 colon cancer cells) greater than 10000 nM, an inhibition at 10 µM (SW480 colon cancer cells) of 13.8% and an Emax [1] of 41%.

In the case of `CCCCC(=O)Nc1cncc(-c2ccc3[nH]nc(-c4cc5c(N6CCCCC6)cccc5[nH]4)c3n2)c1` [Compound 187, N-(5-(3-(4-(Piperidin-1-yl)-1H-indol-2-yl)-1H-pyrazolo[4,3-b]pyridin-5-yl)pyridin-3-yl)pentanamide], the EC50 (SW480 colon cancer cells) is reported as 4440 nM, the EC50 [1] is reported as 100 nM and the Emax [1] is reported as 69%.

`c1ccc(-c2ccc3[nH]nc(-c4cc5c(N6CCCCC6)cccc5[nH]4)c3n2)nc1` [Compound 196, 3-(4-(Piperidin-1-yl)-1H-indol-2-yl)-5-(pyridin-2-yl)-1H-pyrazolo[4,3-b] pyridine] was tested, and the EC50 (SW480 colon cancer cells) was greater than 10000 nM and the inhibition at 10 µM (SW480 colon cancer cells) was 10.4%.

`c1cncc(-c2ccc3[nH]nc(-c4cc5ccccc5[nH]4)c3n2)c1` [Compound 256, 3-(1H-Indol-2-yl)-5-(pyridin-3-yl)-1H-pyrazolo[4,3-b]pyridine] was tested, and the EC50 (SW480 colon cancer cells) was greater than 10000 nM and the inhibition at 10 µM (SW480 colon cancer cells) was 37.6%.

For `FC1(F)CCN(Cc2cncc(-c3ccc4[nH]nc(-c5cc6c(-c7cccs7)cccc6[nH]5)c4n3)c2)C1` [Compound 362, 5-(5-((3,3-Difluoropyrrolidin-1-yl)methyl)pyridin-3-yl)-3-(4-(thiophen-2-yl)-1H-indol-2-yl)-1H-pyrazolo[4,3-b]pyridine], the EC50 (SW480 colon cancer cells) was greater than 10000 nM and the inhibition at 10 µM (SW480 colon cancer cells) was 15.3%.

Work on `Nc1cncc(-c2ccc3[nH]nc(-c4cc5ncccc5[nH]4)c3n2)c1` [Compound 507, 5-(3-(1H-Pyrrolo[3,2-b]pyridin-2-yl)-1H-pyrazolo[4,3-b]pyridin-5-yl) pyridin-3-amine] yielded an EC50 (SW480 colon cancer cells) of 965 nM.

With `Fc1cccc(-c2cccc3[nH]c(-c4n[nH]c5ccc(-c6cncc(OCc7ccccc7)c6)nc45)cc23)c1` [Compound 546, 5-(5-(Benzyloxy)pyridin-3-yl)-3-(4-(3-fluorophenyl)-1H-indol-2-yl)-1H-pyrazolo[4,3-b]pyridine] the EC50 (SW480 colon cancer cells) was greater than 10000 nM and the inhibition at 10 µM (SW480 colon cancer cells) was 18.1%.

`c1cc(-c2ccoc2)c2cc(-c3n[nH]c4ccc(-c5cn[nH]c5)nc34)[nH]c2c1` [Compound 711, 3-(4-(Furan-3-yl)-1H-indol-2-yl)-5-(1H-pyrazol-4-yl)-1H-pyrazolo[4,3-b] pyridine] gave an EC50 (SW480 colon cancer cells) greater than 10000 nM and an inhibition at 10 µM (SW480 colon cancer cells) of 12.4%.

`c1cc(-c2ccoc2)c2cc(-c3n[nH]c4ccc(-c5cncc(OC6CCCCC6)c5)nc34)[nH]c2c1` [Compound 715, 5-(5-(Cyclohexyloxy)pyridin-3-yl)-3-(4-(furan-3-yl)-1H-indol-2-yl)-1H-pyrazolo[4,3-b]pyridine] showed an EC50 (SW480 colon cancer cells) greater than 10000 nM and an inhibition at 10 µM (SW480 colon cancer cells) of 10.4%.

For `Oc1cncc(-c2ccc3[nH]nc(-c4cc5c(-c6cccs6)cccc5[nH]4)c3n2)c1` [Compound 737, 5-(3-(4-(Thiophen-2-yl)-1H-indol-2-yl)-1H-pyrazolo[4,3-b]pyridin-5-yl) pyridin-3-ol], the EC50 (SW480 colon cancer cells) was greater than 10000 nM and the inhibition at 10 µM (SW480 colon cancer cells) was 0%.

In the case of `c1cnc2cc(-c3n[nH]c4ccc(-c5cn[nH]c5)nc34)[nH]c2c1` [Compound 1021, 5-(1H-Pyrazol-4-yl)-3-(1H-pyrrolo[3,2-b]pyridin-2-yl)-1H-pyrazolo[4,3-b] pyridine], the EC50 (SW480 colon cancer cells) is reported as 1290 nM.

`Oc1cncc(-c2ccc3[nH]nc(-c4cc5ncccc5[nH]4)c3n2)c1` [Compound 1031, 5-(3-(1H-Pyrrolo[3,2-b]pyridin-2-yl)-1H-pyrazolo[4,3-b]pyridin-5-yl) pyridin-3-ol] was tested, and the EC50 (SW480 colon cancer cells) was 4380 nM.
